The nature of this data set: Isoelectric point of the sterol derivative. Format: physicochemical. To be noted: stated as very close to pH 6.5.

The compound `CC(C)CCCC(C)C1CCC2C3CC=C4CC(OC(=O)CCC(=O)NC(Cc5cnc[nH]5)C(=O)O)CCC4(C)C3CCC12C` [Hist-Chol, Cholesteryl-L-histidyl Succinate] returned an isoelectric point of approximately 6.5.

Values taken from patent US7407947B2, “Amphoteric sterols and the use thereof” (Novosom AG, priority 2001, dated 2008).
